target: T1, purified human HDAC6 (Homo sapiens, UniProt Q9UBN7); assay: HDAC6 Enzyme Assay; format: biochemical; conditions: compound concentration 0.37 μM, read-out: Percent Inhibition
T1 construct: purchased BPS Bioscience 5006
T1 sequence (Q9UBN7 1-1215): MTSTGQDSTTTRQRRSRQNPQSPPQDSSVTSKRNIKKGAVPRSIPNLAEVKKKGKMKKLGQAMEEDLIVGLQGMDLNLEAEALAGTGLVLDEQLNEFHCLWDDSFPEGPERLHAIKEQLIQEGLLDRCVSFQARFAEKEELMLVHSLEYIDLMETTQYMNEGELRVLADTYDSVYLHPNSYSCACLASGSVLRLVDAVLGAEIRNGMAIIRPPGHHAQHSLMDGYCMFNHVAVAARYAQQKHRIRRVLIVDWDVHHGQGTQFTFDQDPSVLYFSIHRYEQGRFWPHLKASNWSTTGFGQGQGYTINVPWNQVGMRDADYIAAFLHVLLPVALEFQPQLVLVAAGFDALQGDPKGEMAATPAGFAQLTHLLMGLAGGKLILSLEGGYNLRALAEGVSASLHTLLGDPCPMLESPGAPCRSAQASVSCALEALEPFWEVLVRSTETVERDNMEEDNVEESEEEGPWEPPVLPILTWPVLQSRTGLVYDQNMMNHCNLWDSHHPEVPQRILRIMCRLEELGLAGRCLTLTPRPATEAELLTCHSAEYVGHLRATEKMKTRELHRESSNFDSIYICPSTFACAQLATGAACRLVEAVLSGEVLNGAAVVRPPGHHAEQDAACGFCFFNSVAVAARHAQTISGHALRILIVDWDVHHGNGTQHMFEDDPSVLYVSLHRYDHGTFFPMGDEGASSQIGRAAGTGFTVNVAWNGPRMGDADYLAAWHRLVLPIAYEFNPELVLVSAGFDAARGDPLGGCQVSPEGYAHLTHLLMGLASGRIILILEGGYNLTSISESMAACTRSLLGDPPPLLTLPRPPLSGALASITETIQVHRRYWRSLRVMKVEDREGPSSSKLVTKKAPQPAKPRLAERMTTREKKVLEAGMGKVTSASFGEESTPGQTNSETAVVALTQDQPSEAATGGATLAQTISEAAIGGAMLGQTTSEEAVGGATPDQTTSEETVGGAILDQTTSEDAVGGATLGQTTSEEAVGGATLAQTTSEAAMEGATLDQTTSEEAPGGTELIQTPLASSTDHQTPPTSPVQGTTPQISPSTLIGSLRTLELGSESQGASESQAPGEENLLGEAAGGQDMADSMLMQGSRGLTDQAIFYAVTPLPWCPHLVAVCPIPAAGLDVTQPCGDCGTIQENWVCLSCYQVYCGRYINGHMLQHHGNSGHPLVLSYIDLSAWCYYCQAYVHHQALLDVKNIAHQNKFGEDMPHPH
How it was run: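 Purified human HDAC6 incubated 1 h at 30° C with Ac-Arg-Gly-Lys(Ac)-AMC peptide plus compound or DMSO; stopped with trichostatin A. Deacetylated product trypsin-digested, released AMC read by fluorescence (Ex 340/Em 460 nm). Percent inhibition at one concentration or IC50 from curves relative to DMSO controls.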

inhibition at 0.37 µM [%]	SMILES
94.5	CS(=O)(=O)c1cccc(-c2cccc(CCn3cnc4ccc(C(=O)NO)cc4c3=O)c2)c1 [Compound I-341, N-hydroxy-3-{2-[3′-(methylsulfonyl)biphenyl-3-yl]ethyl}-4-oxo-3,4-dihydroquinazoline-6-carboxamide]
78.8	Cn1c(-c2nc3cc(C(=O)NO)ccc3c(=O)n2Cc2ccc(C(F)(F)F)cc2)cc2ccccc21 [Compound I-166, N-hydroxy-2-(1-methyl-1H-indol-2-yl)-4-oxo-3-[4-(trifluoromethyl)benzyl]-3,4-dihydroquinazoline-7-carboxamide]
73.2	O=C(NO)c1ccc2ncn(CCc3cccc(-c4c(Cl)cccc4Cl)c3)c(=O)c2c1 [Compound I-313, 3-[2-(2′,6′-dichlorobiphenyl-3-yl)ethyl]-N-hydroxy-4-oxo-3,4-dihydroquinazoline-6-carboxamide]
-4.61	Cc1ncc(-c2nc3cc(C(=O)NO)ccc3c(=O)[nH]2)n1C [Compound I-403, 2-(1,2-dimethyl-1H-imidazol-5-yl)-N-hydroxy-4-oxo-3,4-dihydroquinazoline-7-carboxamide]
93.8	O=C(NO)c1ccc2ncn(Cc3cccc(N4CCOCC4)c3)c(=O)c2c1 [Compound I-114, N-hydroxy-3-(3-morpholin-4-ylbenzyl)-4-oxo-3,4-dihydroquinazoline-6-carboxamide]
94.2	Cc1ccccc1-c1cccc(CCn2cnc3ccc(C(=O)NO)cc3c2=O)c1 [Compound I-296, N-hydroxy-3-[2-(2′-methylbiphenyl-3-yl)ethyl]-4-oxo-3,4-dihydroquinazoline-6-carboxamide]
92	O=C(NO)c1ccc2c(=O)[nH]c(-c3ccc4ccccc4c3)nc2c1 [Compound I-405, N-hydroxy-2-(2-naphthyl)-4-oxo-3,4-dihydroquinazoline-7-carboxamide]
96.6	COc1ccc(-c2cccc(Cn3cnc4ccc(C(=O)NO)cc4c3=O)c2)cn1 [Compound I-143, N-hydroxy-3-[3-(6-methoxypyridin-3-yl)benzyl]-4-oxo-3,4-dihydroquinazoline-6-carboxamide]
93.2	Nc1cccc(-c2cccc(Cn3cnc4ccc(C(=O)NO)cc4c3=O)c2)c1 [Compound I-177, 3-[(3′-aminobiphenyl-3-yl)methyl]-N-hydroxy-4-oxo-3,4-dihydroquinazoline-6-carboxamide]
56	CC(C)NCCn1cnc2ccc(C(=O)NO)cc2c1=O [Compound I-294, N-hydroxy-3-[2-(isopropylamino)ethyl]-4-oxo-3,4-dihydroquinazoline-6-carboxamide]
94.6	O=C(NO)c1ccc2ncn(CCc3cccc(-c4ccn[nH]4)c3)c(=O)c2c1 [Compound I-323, N-hydroxy-4-oxo-3-{2-[3-(1H-pyrazol-5-yl)phenyl]ethyl}-3,4-dihydroquinazoline-6-carboxamide]
90.3	O=C(NO)c1ccc2ccn(-c3ccccn3)c(=O)c2c1 [Compound I-310, N-hydroxy-1-oxo-2-pyridin-2-yl-1,2-dihydroisoquinoline-7-carboxamide]
88.2	O=C(NO)c1ccc2c(=O)[nH]c(-c3ccccc3)nc2c1 [Compound I-401, N-hydroxy-4-oxo-2-phenyl-3,4-dihydroquinazoline-7-carboxamide]
91.7	O=C(NO)c1ccc2ncn(CCc3cccc(-c4ccc(F)cc4)c3)c(=O)c2c1 [Compound I-300, 3-[2-(4′-fluorobiphenyl-3-yl)ethyl]-N-hydroxy-4-oxo-3,4-dihydroquinazoline-6-carboxamide]

same assay, conditions: compound concentration 0.412 μM, read-out: Percent Inhibition

inhibition at 0.412 µM [%]	SMILES
96.6	O=C(NO)c1ccc2ccn(CCc3cccc4ccccc34)c(=O)c2c1 [Compound I-251, N-hydroxy-2-[2-(1-naphthyl)ethyl]-1-oxo-1,2-dihydroisoquinoline-7-carboxamide]
84.7	O=C(NO)c1ccc2ncn(CC3CC3)c(=O)c2c1 [Compound I-25, 3-(cyclopropylmethyl)-N-hydroxy-4-oxo-3,4-dihydroquinazoline-6-carboxamide]
93.2	O=C(NO)c1ccc2ncn(Cc3ccccc3Cl)c(=O)c2c1 [Compound I-63, 3-(2-chlorobenzyl)-N-hydroxy-4-oxo-3,4-dihydroquinazoline-6-carboxamide]
94.4	Cc1cc(C)cc(Cn2ccc3ccc(C(=O)NO)cc3c2=O)c1 [Compound I-33, 2-(3,5-dimethylbenzyl)-N-hydroxy-1-oxo-1,2-dihydroisoquinoline-7-carboxamide]
91.2	Cc1cc(Cn2ccc3ccc(C(=O)NO)cc3c2=O)no1 [Compound I-148, N-hydroxy-2-[(5-methylisoxazol-3-yl)methyl]-1-oxo-1,2-dihydroisoquinoline-7-carboxamide]
90.2	O=C(NO)c1ccc2ncn(Cc3ccc(F)cc3)c(=O)c2c1 [Compound I-115, 3-(4-fluorobenzyl)-N-hydroxy-4-oxo-3,4-dihydroquinazoline-6-carboxamide]
95.8	COc1ccc(OCCCn2ccc3ccc(C(=O)NO)cc3c2=O)cc1 [Compound I-3, N-hydroxy-2-[3-(4-methoxyphenoxy)propyl]-1-oxo-1,2-dihydroisoquinoline-7-carboxamide]
91.1	O=C(NO)c1ccc2c(=O)n(CCc3ccccn3)c(-c3ccccc3)nc2c1 [Compound I-263, N-hydroxy-4-oxo-2-phenyl-3-(2-pyridin-2-ylethyl)-3,4-dihydroquinazoline-7-carboxamide]
72	CC(C)n1cnc2cc(C(=O)NO)ccc2c1=O [Compound I-256, N-hydroxy-3-isopropyl-4-oxo-3,4-dihydroquinazoline-7-carboxamide]
95.5	O=C(NO)c1ccc2ccn(Cc3cc(F)cc(F)c3)c(=O)c2c1 [Compound I-119, 2-(3,5-difluorobenzyl)-N-hydroxy-1-oxo-1,2-dihydroisoquinoline-7-carboxamide]
59.5	NCCn1ccc2ccc(C(=O)NO)cc2c1=O [Compound I-207, 2-(2-aminoethyl)-N-hydroxy-1-oxo-1,2-dihydroisoquinoline-7-carboxamide]
71.7	O=C(NO)c1ccc2[nH]c(=O)n(-c3ccccc3)c(=O)c2c1 [Compound I-123, N-hydroxy-2,4-dioxo-3-phenyl-1,2,3,4-tetrahydroquinazoline-6-carboxamide]
84.5	Cc1ccn(CCn2ccc3ccc(C(=O)NO)cc3c2=O)n1 [Compound I-10, N-hydroxy-2-[2-(3-methyl-1H-pyrazol-1-yl)ethyl]-1-oxo-1,2-dihydroisoquinoline-7-carboxamide]
94.8	O=C(NO)c1ccc2c(=O)n(CCCc3ccccc3)cnc2c1 [Compound I-74, N-hydroxy-4-oxo-3-(3-phenylpropyl)-3,4-dihydroquinazoline-7-carboxamide]
57.5	O=C(NO)c1ccc2ccn(CCN(Cc3cccc(C(F)(F)F)c3)Cc3cccc(C(F)(F)F)c3)c(=O)c2c1 [Compound I-253, 2-(2-{bis[3-(trifluoromethyl)benzyl]amino}ethyl)-N-hydroxy-1-oxo-1,2-dihydroisoquinoline-7-carboxamide]
94.9	O=C(NO)c1ccc2ccn(Cc3ccc(-n4cncn4)cc3)c(=O)c2c1 [Compound I-223, N-hydroxy-1-oxo-2-[4-(1H-1,2,4-triazol-1-yl)benzyl]-1,2-dihydroisoquinoline-7-carboxamide]
94.9	O=C(NO)c1ccc2ccn(Cc3ccc(F)cc3Cl)c(=O)c2c1 [Compound I-50, 2-(2-chloro-4-fluorobenzyl)-N-hydroxy-1-oxo-1,2-dihydroisoquinoline-7-carboxamide]
96.1	CS(=O)(=O)c1ccccc1OCCn1ccc2ccc(C(=O)NO)cc2c1=O [Compound I-167, N-hydroxy-2-{2-[2-(methylsulfonyl)phenoxy]ethyl}-1-oxo-1,2-dihydroisoquinoline-7-carboxamide]

Reference: patent US8765773B2, “Substituted hydroxamic acids and uses thereof” (Millennium Pharmaceuticals, Inc., priority 2010, dated 2014)
